Laboratory results reported in BindingDB's records for patent US9040727 (Shanghai Institute of Pharmaceutical Industry, 2015).

Target: Histone deacetylase 1 (Homo sapiens, UniProt Q13547)
Experiment: Inhibition Assay

Histone deacetylase 1, sequence (Q13547 whole entry): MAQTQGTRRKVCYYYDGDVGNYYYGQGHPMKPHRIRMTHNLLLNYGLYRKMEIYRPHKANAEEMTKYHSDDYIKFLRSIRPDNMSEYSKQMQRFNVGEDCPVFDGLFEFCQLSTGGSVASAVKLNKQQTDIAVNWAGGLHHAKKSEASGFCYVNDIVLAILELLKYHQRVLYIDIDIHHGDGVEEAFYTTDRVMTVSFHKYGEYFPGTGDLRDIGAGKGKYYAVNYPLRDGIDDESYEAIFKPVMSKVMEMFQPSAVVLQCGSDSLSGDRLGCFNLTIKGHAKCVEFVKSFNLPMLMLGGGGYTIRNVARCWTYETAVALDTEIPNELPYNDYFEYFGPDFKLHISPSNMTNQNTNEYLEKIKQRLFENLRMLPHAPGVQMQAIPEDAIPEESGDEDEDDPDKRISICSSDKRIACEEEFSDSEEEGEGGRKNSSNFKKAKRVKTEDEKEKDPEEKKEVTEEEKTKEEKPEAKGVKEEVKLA

Row | SMILES | IC50 [nM]
1 | Nc1ccccc1NC(=O)c1ccc(CNC(=O)c2cc3ccccc3o2)cc1 [US9040727, V-8] | 732
2 | Nc1ccc(-c2cccs2)cc1NC(=O)c1ccc(CNC(=O)c2cc3ccccc3o2)cc1 [US9040727, V-10] | 1610
3 | Nc1ccccc1NC(=O)c1ccc(CNC(=O)c2cc3cc(C(F)(F)F)ccc3[nH]2)cc1 [US9040727, V-20] | 1010

Now those with a lower IC50, led by results:

Row | IC50 [nM] | SMILES
4 | 330 | Nc1ccc(-c2ccco2)cc1NC(=O)c1ccc(CNC(=O)c2nc3ccccc3[nH]2)cc1 [US9040727, V-14]
5 | 212 | Nc1ccccc1NC(=O)c1ccc(CNC(=O)c2cc3ccccc3[nH]2)cc1 [US9040727, V-5]
6 | 178 | Nc1ccc(F)cc1NC(=O)c1ccc(CNC(=O)c2cc3ccccc3o2)cc1 [US9040727, V-9]
